Molecular target: T1, airway epithelial sodium currents (epithelial sodium channel, ENaC) (Canis lupus familiaris, UniProt A0A8I3MKE6+A0A8I3Q679+Q95165)
T1 construct: endogenous in cells; host or cells: primary canine airway epithelial cells cultured at air-liquid interface, mounted in Ussing chambers
T1 sequence (A0A8I3Q679 1-649): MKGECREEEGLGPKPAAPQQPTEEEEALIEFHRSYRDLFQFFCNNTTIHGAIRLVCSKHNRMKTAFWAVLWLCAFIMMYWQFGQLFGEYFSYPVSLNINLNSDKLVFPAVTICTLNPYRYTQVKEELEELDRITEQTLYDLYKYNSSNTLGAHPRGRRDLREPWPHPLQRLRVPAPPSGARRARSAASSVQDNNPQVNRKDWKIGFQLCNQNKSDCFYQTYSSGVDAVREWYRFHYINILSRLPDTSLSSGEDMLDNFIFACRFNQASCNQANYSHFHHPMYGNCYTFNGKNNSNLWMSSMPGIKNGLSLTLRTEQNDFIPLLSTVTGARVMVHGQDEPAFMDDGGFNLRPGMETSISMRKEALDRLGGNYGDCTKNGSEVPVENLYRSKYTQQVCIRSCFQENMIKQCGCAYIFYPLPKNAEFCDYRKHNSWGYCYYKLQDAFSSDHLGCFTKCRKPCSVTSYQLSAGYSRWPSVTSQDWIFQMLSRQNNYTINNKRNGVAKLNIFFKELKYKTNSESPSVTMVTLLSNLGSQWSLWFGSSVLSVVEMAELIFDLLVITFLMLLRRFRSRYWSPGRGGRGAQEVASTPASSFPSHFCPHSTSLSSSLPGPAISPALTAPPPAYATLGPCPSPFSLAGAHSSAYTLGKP
T1 sequence (Q95165 1-641): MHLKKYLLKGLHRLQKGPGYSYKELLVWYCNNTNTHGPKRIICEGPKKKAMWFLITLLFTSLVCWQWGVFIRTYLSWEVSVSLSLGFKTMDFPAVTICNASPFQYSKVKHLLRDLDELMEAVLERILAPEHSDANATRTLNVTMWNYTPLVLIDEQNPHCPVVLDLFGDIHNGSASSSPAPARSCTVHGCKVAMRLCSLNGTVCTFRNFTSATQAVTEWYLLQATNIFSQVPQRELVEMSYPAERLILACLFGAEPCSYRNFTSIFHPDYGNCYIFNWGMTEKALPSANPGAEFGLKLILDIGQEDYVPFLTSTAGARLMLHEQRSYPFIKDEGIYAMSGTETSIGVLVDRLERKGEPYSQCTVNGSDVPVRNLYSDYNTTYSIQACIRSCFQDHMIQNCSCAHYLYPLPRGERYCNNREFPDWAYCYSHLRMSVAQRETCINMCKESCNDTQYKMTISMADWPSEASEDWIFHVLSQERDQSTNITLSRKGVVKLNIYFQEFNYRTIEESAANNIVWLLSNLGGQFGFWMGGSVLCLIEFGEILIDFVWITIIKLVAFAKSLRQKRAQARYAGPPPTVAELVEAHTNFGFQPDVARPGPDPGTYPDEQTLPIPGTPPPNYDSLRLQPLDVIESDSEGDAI
T1 sequence (A0A8I3MKE6 1-646): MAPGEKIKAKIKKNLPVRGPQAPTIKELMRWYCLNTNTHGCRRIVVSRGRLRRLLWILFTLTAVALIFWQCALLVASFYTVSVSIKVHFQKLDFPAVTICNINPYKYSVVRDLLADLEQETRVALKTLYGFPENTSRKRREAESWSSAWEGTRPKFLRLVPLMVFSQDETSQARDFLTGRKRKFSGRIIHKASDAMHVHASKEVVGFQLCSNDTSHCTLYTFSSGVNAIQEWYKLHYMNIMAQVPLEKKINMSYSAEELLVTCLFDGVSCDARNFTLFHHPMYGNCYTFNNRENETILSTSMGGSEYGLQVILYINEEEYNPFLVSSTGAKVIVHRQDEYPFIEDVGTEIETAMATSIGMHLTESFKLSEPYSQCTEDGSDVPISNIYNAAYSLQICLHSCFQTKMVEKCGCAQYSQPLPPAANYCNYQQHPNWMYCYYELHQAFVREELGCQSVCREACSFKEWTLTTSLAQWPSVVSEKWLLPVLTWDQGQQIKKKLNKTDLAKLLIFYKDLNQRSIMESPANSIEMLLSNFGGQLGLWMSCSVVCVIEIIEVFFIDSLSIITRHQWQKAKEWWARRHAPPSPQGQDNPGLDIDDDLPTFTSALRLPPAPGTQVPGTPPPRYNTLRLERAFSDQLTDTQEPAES
Assay: In vitro measure of sodium channel blocking activity (short circuit current, Ussing chambers)
Type: cell-based
Details: freshly excised cells from canine airways; lumenal drug addition; short circuit current (ISC)
Description: One assay used to assess mechanism of action and/or potency of the compounds of the present invention involves the determination of lumenal drug inhibition of airway epithelial sodium currents measured under short circuit current (ISC) using airway epithelial monolayers mounted in Ussing chambers. Cells obtained from freshly excised human, dog, sheep or rodent airways are seeded onto porous 0.4 micron Snapwell™ Inserts (CoStar), cultured at air-liquid interface (ALI) conditions in hormonally defined media, and assayed for sodium transport activity (ISC) while bathed in Krebs Bicarbonate Ringer (KBR) in Using chambers. All test drug additions are to the lumenal bath with half-log dose addition protocols (from 1×10^−11 M to 3×10^−5 M), and the cumulative change in ISC (inhibition) recorded. […] After the maximal concentration (5×10^−5 M) is administered, the lumenal bath is exchanged three times with fresh drug-free KBR solution, and the resultant ISC measured after each wash for approximately 5 minutes in duration. […] All data from the voltage clamps are collected via a computer interface and analyzed off-line. Dose-effect relationships for all compounds are considered and analyzed by the Prism 3.0 program. IC50 values, maximal effective concentrations, and reversibility are calculated and compared to amiloride and benzamil as positive controls. […]

N=C(N)NCCCC[C@H](NC[C@H](O)[C@@H](O)[C@H](O)[C@H](O)CO)C(=O)NCCOc1ccc(CCCCNC(=N)NC(=O)c2nc(Cl)c(N)nc2N)cc1 [Compound I, 3,5-diamino-6-chloro-N—(N-(4-(4-(2-((S)-6-guanidino-2-((2S,3R,4R,5R)-2,3,4,5,6-pentahydroxyhexylamino)hexanamido)ethoxy)phenyl)butyl)carbamimidoyl)pyrazine-2-carboxamide]
IC50: 13.2 nM

From patent publication US9856224B2, “Stable sodium channel blockers” (PARION SCIENCES, INC., priority 2014, dated 2018)
